Measured values as given in patent publication US20240252488A1 (KOREA RESEARCH INSTITUTE OF CHEMICAL TECHNOLOGY, priority 2020, published 2024).

Tests used:
[1] = molecular target: T1, MLKL (Homo sapiens, UniProt Q8NB16); assay: MLKL degradation assay in HepG2 cell line (western blot); type: cell-based; parameters: endogenous in cells; host or cells: HepG2 or HaCaT; details: cell line not given; for Degradation assay (Degradation %) 1 μM: compound 1 μM; for Degradation assay (Degradation %) 10 μM: compound 10 μM
T1 sequence (Q8NB16 1-471): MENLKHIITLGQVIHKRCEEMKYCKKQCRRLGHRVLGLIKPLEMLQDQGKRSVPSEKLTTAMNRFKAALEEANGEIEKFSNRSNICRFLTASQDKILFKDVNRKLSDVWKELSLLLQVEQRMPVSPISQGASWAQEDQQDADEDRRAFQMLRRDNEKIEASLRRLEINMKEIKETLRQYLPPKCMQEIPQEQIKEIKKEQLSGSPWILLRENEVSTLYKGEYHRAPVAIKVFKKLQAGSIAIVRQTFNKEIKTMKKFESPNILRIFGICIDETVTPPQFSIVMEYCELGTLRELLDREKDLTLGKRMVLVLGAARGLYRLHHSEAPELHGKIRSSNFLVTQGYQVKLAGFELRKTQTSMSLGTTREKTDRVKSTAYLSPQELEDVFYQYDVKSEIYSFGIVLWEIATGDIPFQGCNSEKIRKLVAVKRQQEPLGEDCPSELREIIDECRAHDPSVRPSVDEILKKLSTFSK
Summary of the method: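 Degradation is judged from MLKL band intensity on immunoblots of HepG2 lysates taken after 20-24 hours of compound at final 1 or 10 μM.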

[2] = molecular target: T1, MLKL; assay: Measurement of binding affinity with MLKL receptor (competitive binding assay, Kd); parameters: made in house; host or cells: HEK 293 cell line (T7 phage in E. coli BL21-derived host is also described)
Summary of the method: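 MLKL was produced in HEK 293 cells and tagged with DNA for detection. Liganded beads were blocked with excess biotin and washed to cut non-specific binding, then compounds (111× DMSO stocks, 0.9% DMSO in assay) competed for binding. Eluate kinase was measured by qPCR for Kd.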

[3] = test system: FADD−/− Jurkat cells; assay: Necroptosis inhibition assay, TNF-α-induced necroptosis (CellTiter-Glo 2.0); type: cell-based, human; details: TNF-α 15 ng/mL; for Necroptosis inhibition assay (Rescue %) 1 μM: compound 1 μM; for Necroptosis inhibition assay (Rescue %) 10 μM: compound 10 μM
Summary of the method: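 Tested at three fixed concentrations (0.1, 1, 10 μM final) with a 30-minute room-temperature preincubation ahead of 15 ng/mL TNF-α challenge lasting 20 to 24 hours. Inhibition rate and cytotoxicity derive from ATP luminescence.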

SMILES	Degradation assay (Degradation %) 1 μM [1] [%]	Degradation assay (Degradation %) 10 μM [1] [%]	Kd [2] [nM]	Necroptosis inhibition assay (Rescue %) 1 μM [3] [%]	Necroptosis inhibition assay (Rescue %) 10 μM [3] [%]
Nc1ncc(-c2cnn(C3CCN(CCOC4CCN(C(=O)C5CCN(c6ccc7c(c6)C(=O)N(C6CCC(=O)NC6=O)C7=O)CC5)CC4)CC3)c2)nc1C(=O)OC(C(=O)Nc1ccc(F)cc1)c1ccccc1 (stereo not shown) [TDH-248, 2-((4-fluorophenyl)amino)-2-oxo-1-phenylethyl 3-amino-6-(1-(1-(2-((1-(1-(2-(2,6-dioxopiperidin-3-yl)-1,3-dioxoisoindolin-5-yl)piperidine-4-carbonyl)piperidin-4-yl)oxy)ethyl)piperidin-4-yl)-1H-pyrazol-4-yl)pyrazine-2-carboxylate]	47.44	14.59	8.5	72.38	51.46
Nc1ncc(-c2cnn(C3CCN(CCOC4CCN(C(=O)CNc5cccc6c5C(=O)N(C5CCC(=O)NC5=O)C6=O)CC4)CC3)c2)nc1C(=O)OC(C(=O)Nc1ccc(F)cc1)c1ccccc1 (stereo not shown) [TDH-249, 2-((4-fluorophenyl)amino)-2-oxo-1-phenylethyl 3-amino-6-(1-(1-(2-((1-((2-(2,6-dioxopiperidin-3-yl)-1,3-dioxoisoindolin-4-yl)glycyl)piperidin-4-yl)oxy)ethyl)piperidin-4-yl)-1H-pyrazol-4-yl)pyrazine-2-carboxylate]	35.81	28.42	5.4	45.5	44.81
Nc1ncc(-c2cnn(C3CCN(CCOC4CCN(C(=O)CNc5ccc6c(c5)C(=O)N(C5CCC(=O)NC5=O)C6=O)CC4)CC3)c2)nc1C(=O)OC(C(=O)Nc1ccc(F)cc1)c1ccccc1 (stereo not shown) [TDH-250, 2-((4-fluorophenyl)amino)-2-oxo-1-phenylethyl 3-amino-6-(1-(1-(2-((1-((2-(2,6-dioxopiperidin-3-yl)-1,3-dioxoisoindolin-5-yl)glycyl)piperidin-4-yl)oxy)ethyl)piperidin-4-yl)-1H-pyrazol-4-yl)pyrazine-2-carboxylate]	78.33	71.54	4.9	69.46	46.6
Nc1ncc(-c2cnn(C3CCN(CCOC4CCN(C(=O)COc5cccc6c5C(=O)N(C5CCC(=O)NC5=O)C6=O)CC4)CC3)c2)nc1C(=O)OC(C(=O)Nc1ccc(F)cc1)c1ccccc1 (stereo not shown) [TDH-251, 2-((4-fluorophenyl)amino)-2-oxo-1-phenylethyl 3-amino-6-(1-(1-(2-((1-(2-((2-(2,6-dioxopiperidin-3-yl)-1,3-dioxoisoindolin-4-yl)oxy)acetyl)piperidin-4-yl)oxy)ethyl)piperidin-4-yl)-1H-pyrazol-4-yl)pyrazine-2-carboxylate]	72.87	63.25	1.8	84.44	74.61
Nc1ncc(-c2cnn(C3CCN(CCOC4CCN(C(=O)COc5ccc6c(c5)C(=O)N(C5CCC(=O)NC5=O)C6=O)CC4)CC3)c2)nc1C(=O)OC(C(=O)Nc1ccc(F)cc1)c1ccccc1 (stereo not shown) [TDH-252, 2-((4-fluorophenyl)amino)-2-oxo-1-phenylethyl 3-amino-6-(1-(1-(2-((1-(2-((2-(2,6-dioxopiperidin-3-yl)-1,3-dioxoisoindolin-5-yl)oxy)acetyl)piperidin-4-yl)oxy)ethyl)piperidin-4-yl)-1H-pyrazol-4-yl)pyrazine-2-carboxylate]	76.56	84.2	3.9	124.11	73.38

More lines, main results first:

Degradation assay (Degradation %) 1 μM [1] [%]	Degradation assay (Degradation %) 10 μM [1] [%]	Kd [2] [nM]	SMILES	Necroptosis inhibition assay (Rescue %) 1 μM [3] [%]	Necroptosis inhibition assay (Rescue %) 10 μM [3] [%]
80.74	59.15	10	Nc1ncc(-c2cnn(C3CCN(CCOC4CCN(c5cccc6c5C(=O)N(C5CCC(=O)NC5=O)C6=O)CC4)CC3)c2)nc1C(=O)OC(C(=O)Nc1ccc(F)cc1)c1ccccc1 (stereo not shown) [TDH-253, 2-((4-fluorophenyl)amino)-2-oxo-1-phenylethyl 3-amino-6-(1-(1-(2-((1-(2-(2,6-dioxopiperidin-3-yl)-1,3-dioxoisoindolin-4-yl)piperidin-4-yl)oxy)ethyl)piperidin-4-yl)-1H-pyrazol-4-yl)pyrazine-2-carboxylate]	65.01	36.1
19.16	25.97	8	Nc1ncc(-c2cnn(C3CCN(CCOC4CCN(c5ccc6c(c5)C(=O)N(C5CCC(=O)NC5=O)C6=O)CC4)CC3)c2)nc1C(=O)OC(C(=O)Nc1ccc(F)cc1)c1ccccc1 (stereo not shown) [TDH-254, 2-((4-fluorophenyl)amino)-2-oxo-1-phenylethyl 3-amino-6-(1-(1-(2-((1-(2-(2,6-dioxopiperidin-3-yl)-1,3-dioxoisoindolin-5-yl)piperidin-4-yl)oxy)ethyl)piperidin-4-yl)-1H-pyrazol-4-yl)pyrazine-2-carboxylate]	24.05	15.37
35.59	34.35	41	Nc1ncc(-c2ccc(N3CCN(CC4CCN(C(=O)COc5cccc6c5C(=O)N(C5CCC(=O)NC5=O)C6=O)CC4)CC3)nc2)nc1C(=O)OC(C(=O)Nc1ccc(F)cc1)c1ccccc1 (stereo not shown) [TDH-255, 2-((4-fluorophenyl)amino)-2-oxo-1-phenylethyl 3-amino-6-(6-(4-((1-(2-((2-(2,6-dioxopiperidin-3-yl)-1,3-dioxoisoindolin-4-yl)oxy)acetyl)piperidin-4-yl)methyl)piperazin-1-yl)pyridin-3-yl)pyrazine-2-carboxylate]	46.68	32.39
36.84	24.99	78	Nc1ncc(-c2ccc(N3CCN(CC4CCN(C(=O)COc5ccc6c(c5)C(=O)N(C5CCC(=O)NC5=O)C6=O)CC4)CC3)nc2)nc1C(=O)OC(C(=O)Nc1ccc(F)cc1)c1ccccc1 (stereo not shown) [TDH-256, 2-((4-fluorophenyl)amino)-2-oxo-1-phenylethyl 3-amino-6-(6-(4-((1-(2-((2-(2,6-dioxopiperidin-3-yl)-1,3-dioxoisoindolin-5-yl)oxy)acetyl)piperidin-4-yl)methyl)piperazin-1-yl)pyridin-3-yl)pyrazine-2-carboxylate]	45.87	44.55
7.56	26.63	96	Nc1ncc(-c2ccc(N3CCN(CCOCCOCCNC(=O)C4CCN(c5cccc6c5C(=O)N(C5CCC(=O)NC5=O)C6=O)CC4)CC3)nc2)nc1C(=O)OC(C(=O)Nc1ccc(F)cc1)c1ccccc1 (stereo not shown) [TDH-257, 2-((4-fluorophenyl)amino)-2-oxo-1-phenylethyl 3-amino-6-(6-(4-(2-(2-(2-(1-(2-(2,6-dioxopiperidin-3-yl)-1,3-dioxoisoindolin-4-yl)piperidine-4-carboxamido)ethoxy)ethoxy)ethyl)piperazin-1-yl)pyridin-3-yl)pyrazine-2-carboxylate]	24.61	21.71
13.9	10.67	78	Nc1ncc(-c2ccc(N3CCN(CCOCCOCCNC(=O)C4CCN(c5ccc6c(c5)C(=O)N(C5CCC(=O)NC5=O)C6=O)CC4)CC3)nc2)nc1C(=O)OC(C(=O)Nc1ccc(F)cc1)c1ccccc1 (stereo not shown) [TDH-258, 2-((4-fluorophenyl)amino)-2-oxo-1-phenylethyl 3-amino-6-(6-(4-(2-(2-(2-(1-(2-(2,6-dioxopiperidin-3-yl)-1,3-dioxoisoindolin-5-yl)piperidine-4-carboxamido)ethoxy)ethoxy)ethyl)piperazin-1-yl)pyridin-3-yl)pyrazine-2-carboxylate]	33.73	24.69
